# Measured values published in patent US20040005294A1, “IGFBP-3 in the diagnosis and treatment of cancer” (priority 2002, published 2004).
# Columns and labels:
# Type in all cases: cell-based, human
# HB56B cells = test: MTT proliferation assay, HB56B cells; settings: 10^−9 M to 10^−7 M, 1-3 days
# Experimental: (§1) To measure the effects of deguelin on cell proliferation, NHBE, 1799, 1198, 1170-1, and HB56B cells were plated at concentrations of 2×10^3 to 4×10^3 cells/well in 96-well plates. The next day, cells were treated with either 0.1% DMSO as a diluent control or various concentrations of deguelin (final DMSO concentration=0.1%). At the end of the assay time period, cell proliferation was measured by the 3-(4,5-dimethylthiazol-2-yl)-2,5-diphenyltetrazolium bromide (MTT) assay as described (Lee et al., 2002). Six replicate wells were used for each analysis, and data from replicate wells are presented as means with 95% confidence intervals (CIs). For some experiments, the drug concentration required to inhibit cell growth by 50% (IC50) was determined by interpolation from dose-response curves. At least three independent experiments were performed.
# 1799 cells [1] = test: MTT proliferation assay, 1799 cells
# Experimental: as §1
# To determine whether deguelin-induced antiproliferative effects on premalignant HBE cells were mediated through the inhibition of the PI3K/Akt pathway, 2×10^5 1799 cells/well or 1×10 ^6 squamous HBE cells/well in six-well plates were infected with 5×10 ^3 particles/cell of a control virus (Ad5CMV) or with 1×10^3 or 5×10^3 particles/cell of Ad5CMV-MyrAkt-HA, an adenoviral vector that expresses a constitutively active Akt. (MyrAkt) in KSFM. After 1 day of infection, cells were treated with 10^−7M or 10^−6M deguelin, 2×10^−6 M or 4×10^−6M N-(4-hydroxyphenyl)retinamide (4-HPR), or 0.1% DMSO as a control and then incubated for 1 or 2 days. Apoptosis was analyzed using the APO-BrdU staining kit for TUNEL, Western blot analyses for caspase-3, and the cleavage of PARP.
# 1799 cells [2] = test: Immunoblot of apoptosis-related enzymes and Bcl family members; settings: 3 days
# Experimental: Whole cell lysates from 1×10^6 cells were prepared in lysis buffer as described (Lonardo et al., 2002). Equivalent amounts of protein were resolved by sodium dodecyl sulfate (SDS)-polyacrylamide gels (7.5%-12%) and transferred to a nitrocellulose membrane. After the membrane was blocked in Tris-buffered saline (TBS) containing 0.05% Tween 20 (TBST) and 5% (w/v) nonfat powdered milk, the membrane was incubated with primary antibody at the appropriate dilution in TBS-5% nonfat milk at 4° C. for 16 h. The membrane was then washed multiple times with TBST and incubated with the appropriate horseradish peroxidaseconjugated secondary antibody for 1 h at room temperature. The protein-antibody complexes were detected by enhanced chemilurminescence (ECL kit; Amersham, Arlington Heights, Ill.), according to the manufacturer's recommended protocol.
# The following antibodies and working dilutions were used for the Western blots: rabbit polyclonal antibodies against human phosphorylated Akt (pAkt) (Ser473) (1:1000), Akt (1:1000), phosphorylated glycogen synthase kinase 3β (pGSK-3β) (Ser9) (1:1000), and mouse monoclonal antibody against human antiphosphorylated MAPK (anti-pMAPK) (Thr202/Tyr204) (1:500) (Cell Signaling Technology, Beverly, Mass.); rabbit polyclonal anti-GSK-3α/β (1:1000) (BD Transduction Laboratories, Lexington, Ky.); rabbit polyclonal anti-Bax and anti-caspase-3 antibodies (1:2000) (Pharmingen, San Diego, Calif.); rabbit polyclonal anti-Bcl-2 (1:1000) and rabbit polyclonal antipoly(ADP-ribose) polymerase (PARP) antibody (1:1000) (VIC5; Roche Molecular Biochemicals, Indianapolis, Ind.); rabbit polyclonal anti-hemagglutinin (HA) antibody (1:1000), goat polyclonal antibodies against extracellular related kinase 1(Erk-1; 1:1000), Erk-2 (1:1000), and β-actin (1:4000) (Santa Cruz Biotechnology, Inc., Santa Cruz, Calif.); rabbit anti-mouse immunoglobulin G (IgG)-horseradish peroxidase conjugate (1:2000) (DAKO, Carpinteria, Calif.); and donkey anti-rabbit IgG-horseradish peroxidase conjugate (1:2000) and rabbit anti-goat IgG-horseradish peroxidase conjugate (1:2000) (Amersham Pharmacia Biotech, Arlington Heights, Ill.).
# ERK1/2 in 1799 cells = test: Immune complex kinase assay for ERK1/2; settings: 10^−7 M, 0-24 h, then 50 ng/mL IGF-I for 15 min
# Experimental: Approximately 5×10^6 1799 cells were treated with 10^−7 M deguelin or 0.1% DMSO for various time periods in the absence of any additional stimulatory growth factors. The cells were then treated with 50 ng/mL IGF-I for 15 minutes to activate MAPK. Total cell extracts were prepared in lysis buffer (Lonardo et al. 2002), and ERK-1/2 or c-Jun N-terminal kinase (JNK) were immunoprecipitated from 100 μg of each cell extract using antibodies (1 μg) that recognize ERK1/2 or JNK (Santa Cruz Biotechnology) and protein-A sepharose beads (20 μL) (Amersham Pharmacia Biotech). Kinase assays were performed by incubating the beads with 30 μL of kinase buffer to which 5 μCi of [γ^32P]ATP (2000 cpm/pmol) and 1 μg of substrate (myelin basic protein [MBP; Calbiochem, La Jolla, Calif.] or GST-cJun [Santa Cruz Biotechnology]) were added, as previously described (Lee et al., 2002). The samples were suspended in Laemmli buffer, boiled for 5 min, and then analyzed by SDS-polyacrylamide gel clectrophoresis. The gel was dried and autoradiographed. Total cell lysates from Jurkat cells (Upstate Biotechnology, Inc.) and H1299 NSCLC treated with 50 ng/mL IGF-I for 15 min were used as positive controls. Changes in the level of phosphorylation in MBP or GST-cJun reflect changes in Erk1/2 and JNK activity, respectively.
structure (smiles),measurement,setting,value
"COc1cc2c(cc1OC)[C@@H]1C(=O)c3ccc4c(c3O[C@@H]1CO2)C=CC(C)(C)O4 [deguelin, Deguelin]",effect on growth of HB56B cells,HB56B cells,Dose- and time-dependent growth-inhibitory effects
same,reversibility of effects on cell growth,"1799 cells [1]; 10^−7 M for 1, 2 or 3 days, then 5 days without deguelin",irreversible
same,decrease in cell growth,"1799 cells [1]; 10^−7 M, 1 day",67.1%
same,effect on growth,"1799 cells [1]; 1799 cells infected with Ad5CMV-MyrAkt-HA, 10^−6 M",did not decrease the growth
same,decrease in growth relative to untreated control,"1799 cells [1]; 1799 cells uninfected or infected with 5×10^3 particles/cell Ad5CMV, 10^−7 M, 2 days",54%
same,activity at 0.1 µM,"1799 cells [1]; Homo sapiens, read-out: growth as percent of control cell growth",85%
same,caspase-3 activation,1799 cells [2]; 10^−8 M or 10^−7 M,activated caspase-3
same,Bax level,1799 cells [2],dose dependent increase in the level of Bax
same,Bcl-2 expression,1799 cells [2],slight decrease in Bcl-2 expression
same,Bcl-xL level,1799 cells [2],did not affect the level of Bcl-xL
same,ERK1/2 activity,ERK1/2 in 1799 cells,no discernible effect
